Experimental data reported in ChEMBL document CHEMBL1128837, “The evaluation of 2- and 6-substituted carbocyclic nucleosides as building blocks for antisense oligonucleotides” (Bioorg Med Chem Lett, 1995).

Tests used:
[1] = Melting temperature (Tm) of the modified DNA/RNA duplex at 48 degree Celsius (5'-GCGttttttttttGCG-3')
[2] = Difference in melting temperature (Tm) between the modified DNA/RNA duplex and the unmodified wild type (WT) duplex per modification at 63.9 degree Celsius (5'-CTCGTACCtTTCCGGTCC-3'); type: functional
[3] = Difference in melting temperature (Tm) between the modified DNA/RNA duplex and the unmodified wild type (WT) duplex per modification at 61.7 degree Celsius (5'-CTCGTACttttCCGGTCC-3'); type: functional
[4] = Difference in melting temperature (Tm) between the modified DNA/RNA duplex and the unmodified wild type (WT) duplex per modification at 61.8 degree Celsius (5'-tCCAGGtGtCCGCAtC-3'); type: functional
[5] = Difference in melting temperature (Tm) between the modified DNA/RNA duplex and the unmodified wild type (WT) duplex per modification at 52.3 degree Celsius (5'-TTTTtCTCTCTCTCT-3'); type: functional
[6] = Difference in melting temperature (Tm) between the modified DNA/RNA duplex and the unmodified wild type (WT) duplex per modification at 63.9 degree Celsius (5-ctcGtacctttccGGtcC-3; type: functional
[7] = Difference in melting temperature (Tm) between the modified DNA/RNA duplex and the unmodified wild type (WT) duplex per modification at 48 degree Celsius (5'-GCGttttttttttGCG-3'); type: functional
[8] = Stability against degradation by 3'-exonucleases for the sequence 5'-d(TCC AGG TGT CCG TTT C)-3' in 10% heat-activated fetal calf serum (FCS); type: functional
[9] = Difference in melting temperature (Tm) between the modified DNA/RNA duplex and the unmodified wild type (WT) duplex per modification at 52.3 degree Celsius (5'-tttttctctctctT-3'); type: functional
[10] = Effect of compound on the nuclease resistance of 5'-d(TCC AGG TGT CCG TTT C)-3' in 10% heat-activated fetal calf serum (FCS) expressed as t1/2; type: functional
[11] = Difference in melting temperature (Tm) between the modified DNA/RNA duplex and the unmodified wild type (WT) duplex per modification at 52.3 degree Celsius (5-tttttc*tc*tc*tc*tc*T-3); type: functional
[12] = Ratio of effect of compound on the nuclease resistance of full length oligonucleotide to that of wild type in 10% heat-activated fetal calf serum (FCS); type: functional
[13] = Effect of compound on the nuclease resistance of wild type 5'-d(TCC AGG TGT CCG TTT C)-3' in 10% heat-activated fetal calf serum (FCS) expressed as t1/2; type: functional
[14] = Melting temperature (Tm) of the modified DNA/RNA duplex at 48 degree Celsius (5'-GCGtttttttttGCG-3'); No cooperative melting observed
[15] = Difference in melting temperature (Tm) between the modified DNA/RNA duplex and the unmodified wild type (WT) duplex per modification at 52.3 degree Celsius (5-tttttC*tc*tc*tc*tc*T-3); type: functional

SMILES | Tm [1] [°C] | ΔTm [2] | ΔTm [3] | ΔTm [4] | ΔTm [5] | ΔTm [6] | ΔTm [7] | ΔTm [8] | ΔTm [9] | T1/2 [10] [h] | ΔTm [11] | Ratio [12] | T1/2 [13] [h] | Tm [14] [°C] | ΔTm [15]
COCCOCCOCCO[C@@H]1[C@H](O)[C@@H](CO)C[C@H]1n1cc(C)c(=O)[nH]c1=O | < 20 | -2.9 | -2.6 | -1.1 | 0.2 | – | – | – | – | – | – | – | – | – | –
Cc1cn([C@H]2C[C@H](O)[C@@H](CO)O2)c(=O)[nH]c1=O | – | 0.2 | – | – | – | 0.3 | 0.25 | 2.5 | 0.4 | – | – | – | – | – | –
Cc1cn([C@H]2C[C@H](O)[C@@H](CO)[C@@H]2O)c(=O)[nH]c1=O | – | – | 0.2 | -0.4 | -0.8 | – | 0.8 | – | – | 14 | 0.4 | 7 | 2 | – | –
CO[C@H]1[C@H](CO)[C@@H](O)C[C@@H]1n1cc(C)c(=O)[nH]c1=O | – | 0.2 | -0.7 | -1.3 | -2 | – | -0.9 | – | – | 20 | – | 10 | 2 | – | –
CO[C@@H]1[C@H](O)[C@@H](CO)C[C@H]1n1cc(C)c(=O)[nH]c1=O | – | -1.9 | -0.7 | – | 1.1 | – | -1 | – | – | – | – | – | – | – | –
Cc1cn([C@H]2C[C@H](O)[C@@H](CO)[C@@H]2OCCCc2ccccc2)c(=O)[nH]c1=O | < 20 | -2.8 | -1.7 | -2.8 | -4 | – | – | – | – | > 48 | – | > 24 | 2 | < 20 | –
Cc1cn([C@H]2C[C@H](O)[C@@H](CO)[C@@H]2OCCCCN)c(=O)[nH]c1=O | – | -1.8 | – | -1.4 | -1.1 | – | -1.9 | – | – | > 48 | – | > 24 | 2 | – | –
COCCOCCO[C@H]1[C@H](CO)[C@@H](O)C[C@@H]1n1cc(C)c(=O)[nH]c1=O | – | – | – | – | -1.8 | – | – | – | – | – | – | – | – | – | -1.9
